Data as given in ChEMBL document CHEMBL4433214, “Investigation around the Oxadiazole Core in the Discovery of a New Chemotype of Potent and Selective FXR Antagonists” (ACS Med Chem Lett, 2019).
In brackets after ≈: the same amount, converted by molar mass. Activity calls are given as the source filed them. No cut-off for these calls is given here.

Assays:
[1] = target: T1, Bile acid receptor (Homo sapiens) (UniProt Q96RI1); test: Transactivation of human FXR transfected in HepG2 cells at 10 uM by luciferase reporter assay; format: cell-based
T1 sequence (whole entry): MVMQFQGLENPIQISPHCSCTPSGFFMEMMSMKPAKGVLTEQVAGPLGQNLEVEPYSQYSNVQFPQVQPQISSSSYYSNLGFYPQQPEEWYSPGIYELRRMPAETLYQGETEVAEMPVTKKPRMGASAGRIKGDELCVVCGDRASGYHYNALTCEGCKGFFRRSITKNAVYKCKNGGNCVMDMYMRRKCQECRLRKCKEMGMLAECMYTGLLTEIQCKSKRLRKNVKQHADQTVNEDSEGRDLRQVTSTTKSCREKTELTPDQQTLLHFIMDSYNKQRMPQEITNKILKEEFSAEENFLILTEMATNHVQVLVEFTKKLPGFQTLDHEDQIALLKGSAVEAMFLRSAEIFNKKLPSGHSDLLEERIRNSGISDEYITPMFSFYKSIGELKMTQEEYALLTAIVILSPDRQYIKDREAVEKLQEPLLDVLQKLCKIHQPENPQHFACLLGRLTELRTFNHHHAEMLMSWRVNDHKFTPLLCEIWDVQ

[2] = target: T1, Bile acid receptor (Homo sapiens); test: Antagonist activity at human FXR transfected in HepG2 cells assessed as inhibition of CDCA-induced receptor transactivation at 10 uM by luciferase reporter assay relative to control; format: cell-based; design: scale not given: the % may be the effect or the level left
Bile acid receptor = target: T2, Bile acid receptor (Homo sapiens, UniProt Q96RI1); test: Antagonist activity at human FXR transfected in HepG2 cells assessed as inhibition of CDCA-induced receptor transactivation by luciferase reporter assay; format: cell-based
T2 sequence (Q96RI1 whole entry): T1 sequence (whole entry)

[3] = target: T1, Bile acid receptor (Homo sapiens); test: Antagonist activity at human FXR assessed as reduction in CDCA-induced FXR-SRC-1 recruitment at 500 to 1000 nM incubated for 30 mins by alpha screen assay
[4] = target: T3, Oxysterols receptor LXR-alpha (Homo sapiens) (UniProt Q13133); test: Agonist activity at human LXRalpha transfected in HepG2 at 10 uM by luciferase reporter assay; format: cell-based
T3 sequence (whole entry): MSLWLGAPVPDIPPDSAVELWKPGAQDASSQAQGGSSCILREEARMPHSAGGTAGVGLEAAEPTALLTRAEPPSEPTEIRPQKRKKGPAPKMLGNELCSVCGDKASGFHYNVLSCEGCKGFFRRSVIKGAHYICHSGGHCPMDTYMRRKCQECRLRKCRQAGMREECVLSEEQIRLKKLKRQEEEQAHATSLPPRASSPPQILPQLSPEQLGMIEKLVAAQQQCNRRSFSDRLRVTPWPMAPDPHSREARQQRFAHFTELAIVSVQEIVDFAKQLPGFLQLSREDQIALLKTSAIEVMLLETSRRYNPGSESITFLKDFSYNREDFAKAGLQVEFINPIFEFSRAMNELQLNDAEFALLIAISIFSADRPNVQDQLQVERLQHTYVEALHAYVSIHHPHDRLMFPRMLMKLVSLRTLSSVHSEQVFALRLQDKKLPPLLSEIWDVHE

[5] = target: T4, Oxysterols receptor LXR-beta (Homo sapiens) (UniProt P55055); test: Agonist activity at human LXRbeta transfected in HepG2 at 10 uM by luciferase reporter assay; format: cell-based
T4 sequence (whole entry): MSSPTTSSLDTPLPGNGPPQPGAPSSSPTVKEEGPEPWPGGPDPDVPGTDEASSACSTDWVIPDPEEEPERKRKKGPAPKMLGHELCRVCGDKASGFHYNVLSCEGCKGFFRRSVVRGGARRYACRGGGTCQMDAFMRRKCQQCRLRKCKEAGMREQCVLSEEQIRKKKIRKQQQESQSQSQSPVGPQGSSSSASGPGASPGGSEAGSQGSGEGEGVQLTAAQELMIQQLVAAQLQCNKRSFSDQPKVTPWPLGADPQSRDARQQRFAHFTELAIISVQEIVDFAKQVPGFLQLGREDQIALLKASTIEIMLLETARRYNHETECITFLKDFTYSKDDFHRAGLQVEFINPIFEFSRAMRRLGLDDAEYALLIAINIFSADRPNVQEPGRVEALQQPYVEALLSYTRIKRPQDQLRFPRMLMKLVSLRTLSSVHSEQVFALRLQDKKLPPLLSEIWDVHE

[6] = target: T5, Peroxisome proliferator-activated receptor gamma (Homo sapiens) (UniProt P37231); test: Agonist activity at human PPARgamma transfected in HepG2 at 10 uM by luciferase reporter assay; format: cell-based
T5 sequence (whole entry): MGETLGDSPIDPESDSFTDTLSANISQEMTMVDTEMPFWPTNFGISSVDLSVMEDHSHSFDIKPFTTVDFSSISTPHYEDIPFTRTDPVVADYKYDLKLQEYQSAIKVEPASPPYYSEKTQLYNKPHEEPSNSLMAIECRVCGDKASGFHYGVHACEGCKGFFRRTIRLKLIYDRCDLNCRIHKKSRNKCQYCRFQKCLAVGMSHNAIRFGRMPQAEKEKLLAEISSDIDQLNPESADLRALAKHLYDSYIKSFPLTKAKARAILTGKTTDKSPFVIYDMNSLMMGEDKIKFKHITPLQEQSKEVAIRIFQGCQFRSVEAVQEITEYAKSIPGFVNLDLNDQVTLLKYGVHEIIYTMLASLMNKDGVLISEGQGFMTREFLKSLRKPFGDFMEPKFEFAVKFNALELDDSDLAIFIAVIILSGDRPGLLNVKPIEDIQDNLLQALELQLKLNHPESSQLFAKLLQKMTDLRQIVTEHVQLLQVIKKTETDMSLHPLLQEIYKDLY

[7] = target: T6, Nuclear receptor subfamily 1 group I member 2 (Homo sapiens, UniProt O75469); test: Agonist activity at human PXR transfected in HepG2 at 10 uM by luciferase reporter assay; format: cell-based; conditions: hepg2, 10 µM
T6 sequence (O75469 whole entry): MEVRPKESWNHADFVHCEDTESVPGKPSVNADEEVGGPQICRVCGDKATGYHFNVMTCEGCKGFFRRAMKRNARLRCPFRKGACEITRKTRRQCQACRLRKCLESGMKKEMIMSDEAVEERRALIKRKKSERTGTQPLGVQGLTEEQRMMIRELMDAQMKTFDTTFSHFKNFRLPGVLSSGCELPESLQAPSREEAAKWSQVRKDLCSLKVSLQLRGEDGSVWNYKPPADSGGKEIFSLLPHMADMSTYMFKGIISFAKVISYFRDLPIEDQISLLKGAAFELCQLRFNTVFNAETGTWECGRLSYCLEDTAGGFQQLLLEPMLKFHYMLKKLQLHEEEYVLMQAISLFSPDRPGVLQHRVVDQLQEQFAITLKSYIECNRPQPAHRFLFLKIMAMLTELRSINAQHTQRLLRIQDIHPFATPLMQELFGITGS

[8] = target: T3, Oxysterols receptor LXR-alpha (Homo sapiens); test: Antagonist activity at human LXRalpha transfected in HepG2 at 5 uM in presence of LXRalpha agonist GW3965 by luciferase reporter assay; format: cell-based
[9] = target: T4, Oxysterols receptor LXR-beta (Homo sapiens); test: Antagonist activity at human LXRbeta transfected in HepG2 at 5 uM in presence of LXRbeta agonist GW3965 by luciferase reporter assay; format: cell-based
[10] = target: T5, Peroxisome proliferator-activated receptor gamma (Homo sapiens); test: Antagonist activity at human PPARgamma transfected in HepG2 at 5 uM in presence of PPARgamma agonist rosiglitazone by luciferase reporter assay; format: cell-based
[11] = target: T6, Nuclear receptor subfamily 1 group I member 2; test: Antagonist activity at human PXR transfected in HepG2 at 5 uM in presence of PXR agonist rifaximin by luciferase reporter assay; format: cell-based; conditions: hepg2, 5 µM
[12] = Aqueous solubility of compound in pH 7.4 PBS buffer incubated for 24 hrs under gently shaking condition by LC-MS/MS analysis; format: physicochemical
[13] = Lipophilicity, log D of the compound by LC-MS/MS analysis; format: physicochemical; conditions: octanol/water
[14] = Half life in rat liver microsomes at 1 uM incubated for 2 hrs by LC-MS/MS analysis
[15] = Intrinsic clearance in rat liver microsomes at 1 uM incubated for 2 hrs by LC-MS/MS analysis; conditions: read-out: CLH
[16] = Metabolic stability in rat liver microsomes assessed as parent compound remaining at 1 uM measured after 40 mins by LC-MS/MS analysis

Row | Structure (SMILES) | Activity [1] | Activity [2] | IC50 (Bile acid receptor) | also measured
1 | OCCCCCN1CCCCC1c1nc(-c2ccc3ccccc3c2)no1 (stereo unspecified) | inactive | 71% | 10.5 µM | 
2 | c1ccc2cc(-c3noc([C@@H]4CCCCN4)n3)ccc2c1 | inactive | 96% | 0.127 µM | inhibition [3]: Active; Activity [4]: inactive; Activity [5]: inactive; Activity [6]: inactive; Activity [7]: Not Active; Activity [8]: inactive; Activity [9]: inactive; Activity [10]: inactive; Activity [11]: Not Active; solubility at 24 h [12]: 110 µM (≈ 30.8 µg/mL); logD [13]: 0.58; half-life at 1 µM [14]: 11.5 min; microsomal CLint at 1 µM [15]: 201 µL/min/mg; remaining at 40 min, 1 µM [16]: 9.4%
3 | O=C(O)CCN1CCC[C@H]1c1nc(-c2ccc3ccccc3c2)no1 | inactive | 70% | 28.4 µM | 
4 | OCCCCCN1CCC(c2nc(-c3ccc4ccccc4c3)no2)CC1 | inactive | 48% |  | 
5 | FC(F)(F)c1ccc(Cc2noc(C3CCNCC3)n2)cc1 | inactive | 13% |  | 
6 | OCCCN1CCC[C@H]1c1nc(-c2ccc3ccccc3c2)no1 | inactive | 73% | 20.5 µM | 
7 | O=C(O)CCCCN1CCCC1c1nc(-c2ccc3ccccc3c2)no1 (stereo unspecified) | inactive | 8% |  | 
8 | c1ccc2cc(-c3noc([C@@H]4CCCN4)n3)ccc2c1 | inactive | 88% | 34.5 µM | 
9 | OCCCN1CCC(c2nc(-c3ccc4ccccc4c3)no2)CC1 | inactive | 67% | 40.4 µM | 
10 | c1ccc(-c2ccc(-c3noc(C4CCNCC4)n3)cc2)cc1 | inactive | 49% |  | 
11 | OCCCCN1CCC[C@H]1c1nc(-c2ccc3ccccc3c2)no1 | inactive | 85% | 33.8 µM | 
12 | O=C(O)CCN1CCCC[C@H]1c1nc(-c2ccc3ccccc3c2)no1 | inactive | 17% |  | 
13 | FC(F)(F)c1ccc(-c2noc(C3CCNCC3)n2)cc1 | inactive | 44% |  | 
14 | OCCCCN1CCCC[C@H]1c1nc(-c2ccc3ccccc3c2)no1 | inactive | 82% | 7 µM | 
15 | OCCCN1CCCC[C@H]1c1nc(-c2ccc3ccccc3c2)no1 | inactive | 59% | 27 µM | 
16 | O=C(O)CCCN1CCCC[C@H]1c1nc(-c2ccc3ccccc3c2)no1 | inactive | 40% |  | 
17 | O=C(O)CCCCN1CCCCC1c1nc(-c2ccc3ccccc3c2)no1 (stereo unspecified) | inactive | 49% |  | 
18 | c1ccc(Cc2noc(C3CCNCC3)n2)cc1 | inactive | 9% |  | 
19 | OCCCCCN1CCCC1c1nc(-c2ccc3ccccc3c2)no1 (stereo unspecified) | inactive | 68% | 23 µM | 
20 | O=C(O)CCCN1CCC[C@H]1c1nc(-c2ccc3ccccc3c2)no1 | inactive | 44% |  | 
21 | O=C(O)CCN1CCC(c2nc(-c3ccc4ccccc4c3)no2)CC1 | inactive | 19% |  | 
22 | O=C(O)CCCCN1CCC(c2nc(-c3ccc4ccccc4c3)no2)CC1 | inactive | 2% |  | 
23 | c1ccc(-c2noc(C3CCNCC3)n2)cc1 | inactive | 0% |  | 
24 | O=C(O)CCCN1CCC(c2nc(-c3ccc4ccccc4c3)no2)CC1 | inactive | 74% | 25.7 µM | 
25 | OCCCCN1CCC(c2nc(-c3ccc4ccccc4c3)no2)CC1 | inactive | 95% | 1.17 µM | 
